# In patent EP3771464A1, “PEPTIDES AS INHIBITOR OF FIBROTIC MATRIX ACCUMULATION” (Max-Planck-Gesellschaft zur Förderung der Wissenschaften …, priority 2019, dated 2021):
# “Also recorded” adds a separate entry of the source. Residues, ends and D or L forms follow the SMILES beside them. No end group written: not given here.
# Assays:
# [1] = test system: CCl4-treated mice; assay: CCl4 induced liver fibrosis in mice, collagen in the liver as marker of matrix accumulation; assay type: in vivo; conditions: peptides 25 mg/kg/mouse/day intraperitoneal, daily from day 32 for 10 days
# Experimental: Figure 1 Prevention of fibrosis progression by proline-containing cyclic and amidated linear peptides. Mice were injected for 6 weeks with CCl4 in order to induce liver fibrosis. Starting on day 32 the mice received daily intraperitoneal injections of 25 mg/kg/mouse/day of the peptides in 0.9% NaCl for a total of 10 days. CCl4-treated mice also received NaCl 0.9%. The healthy control group (CT) only received 0.9% NaCl. N= 4/ 10/ 8/ 5/ 10/ 8/ 11/ 7 in two experiments. The following peptides were tested on CCl4-treated mice: cyclic Pro-Gly-Leu-Gln-Gly-Glu (Cyclic PGLQGE), and compared to two controls: cyclic Pro-Gly-Leu-Asn-Gly-Glu (Cyclic CT1+P: cyclic PGLNGE) and cyclic Pro-Gly-Leu-Hyp-Gly-Glu (Cyclic CT2+P: cyclic PGLOGE). Linear Gly-Leu-Gln-Gly-Glu-NH2 (Linear GLQGE-NH2) was also tested and compared to two controls: linear Gly-Leu-Asn-Gly-Glu-NH2 (Linear CT1-NH2: linear GLNGE-NH2) and linear Gly-Leu-Hyp-Gly-Glu-NH2 (Linear CT2-NH2: linear GLOGE-NH2). *p<0.05. Evaluated by t-test. Data presented as mean +/- SEM. Figure 2 Prevention of fibrosis progression by cyclic peptides and acetylated linear peptides. Mice were injected for 6 weeks with CCl4 in order to induce liver fibrosis. Starting on day 32 the mice received daily intraperitoneal injections of 25 mg/kg/mouse/day of the peptides in 0.9% NaCl for a total of 10 days. CCl4-treated mice also received NaCl 0.9%. The healthy control group (CT) only received 0.9% NaCl. N= 5/ 18/ 9/ 9/ 6/ 5/ 4/ 4 in two experiments. The following peptides were tested on CCl4-treated mice: cyclic Gly-Leu-Gln-Gly-Glu (Cyclic GLQGE), and compared to two controls: cyclic Gly-Leu-Asn-Gly-Glu (Cyclic CT1: cyclic GLNGE) and cyclic Gly-Leu-Hyp-Gly-Glu (Cyclic CT2: cyclic GLOGE). Linear Ac-Gly-Leu-Gln-Gly-Glu (Linear Ac-GLQGE) was also tested and compared to two controls: linear Ac-Gly-Leu-Asn-Gly-Glu (Linear Ac-CT1: linear Ac-GLNGE) and linear Ac-Gly-Leu-Hyp-Gly-Glu (Linear Ac-CT2: linear Ac-GLOGE). *p<0.05, **p<0.005. Evaluated by t-test. Data presented as mean +/- SEM.
# Mice were injected for 6 weeks with CCl4 in order to induce liver fibrosis. Starting on day 32 the mice received daily intraperitoneal injections of the peptides at a final dose of 25 mg/kg/mouse/day diluted in NaCl 0.9% for a total of 10 days. In these experiments, the following peptides were tested: cyclic peptide Pro-Gly-Leu-Gln-Gly-Glu, cyclic peptide Pro-Gly-Leu-Asn-Gly-Glu, cyclic peptide Pro-Gly-Leu-Hyp-Gly-Glu, linear peptide Gly-Leu-Gln-Gly-Glu-NH2, linear peptide Gly-Leu-Asn-Gly-Glu-NH2, linear peptide Gly-Leu-Hyp-Gly-Glu-NH2.
# Mice were injected for 6 weeks with CCl4 in order to induce liver fibrosis. Starting on day 32 the mice received daily intraperitoneal injections of the peptides at a final dose of 25 mg/kg/mouse/day diluted in NaCl 0.9% for a total of 10 days. In these experiments, the following peptides were tested: cyclic peptide Gly-Leu-Gln-Gly-Glu, cyclic peptide Gly-Leu-Asn-Gly-Glu, cyclic peptide Gly-Leu-Hyp-Gly-Glu, linear peptide Ac-Gly-Leu-Gln-Gly-Glu, linear peptide Ac-Gly-Leu-Asn-Gly-Glu, linear peptide Ac-Gly-Leu-Hyp-Gly-Glu.
# [2] = test system: TGFβ; assay: unstimulated TGFβ expression in murine hepatocytes (data not shown); assay type: cell-based
# [3] = Example 2, Figure 1, CCl4 for 6 weeks
# [4] = Example 3, Figure 2, CCl4 for 6 weeks
Compound,"collagen accumulation [1, 3]","collagen accumulation [1, 4]",further results
"CC(C)C[C@@H]1NC(=O)CNC(=O)[C@@H]2CCCN2C(=O)[C@H](CCC(=O)O)NC(=O)CNC(=O)[C@H](CC(N)=O)NC1=O [Cyclic CT1+P, Pro-Gly-Leu-Asn-Gly-Glu] (HELM PEPTIDE1{E.P.G.L.N.G}$PEPTIDE1,PEPTIDE1,1:R1-6:R2$$$V2.0)",neither the cyclic forms of the control peptides (with Pro: Pro-Gly-Leu-Asn-Gly-Glu or Pro-Gly-Leu-Hyp-Gly-Glu) nor the linear forms of the control peptides Gly-Leu-Asn-Gly-Glu-NH2 and Gly-Leu-Hyp-Gly-Glu-NH2 were able to reduce collagen amount in the liver,–,–
"CC(C)C[C@@H]1NC(=O)CNC(=O)[C@H](CCC(=O)O)NC(=O)CNC(=O)[C@H](CCC(N)=O)NC1=O [Cyclic GLQGE, Gly-Leu-Gln-Gly-Glu] (HELM PEPTIDE1{E.G.L.Q.G}$PEPTIDE1,PEPTIDE1,1:R1-5:R2$$$V2.0)",–,larger inhibitory effect compared to the linear Gly-Leu-Gln-Gly-Glu-NH2 or Ac-Gly-Leu-Gln-Gly-Glu,"collagen accumulation ([1]; Example 3, Figure 2, CCl4 for 6 weeks, listed as cyclic peptide Gly-Leu-Gln-Gly-Glu): able to significantly reduce collagen accumulation; also recorded: more efficient in reducing collagen accumulation also in comparison to the cyclic peptide with proline Pro-Gly-Leu-Gln-Gly-Glu"
"CC(C)C[C@@H]1NC(=O)CNC(=O)[C@@H]2CCCN2C(=O)[C@H](CCC(=O)O)NC(=O)CNC(=O)[C@H](CCC(N)=O)NC1=O [Cyclic PGLQGE, Pro-Gly-Leu-Gln-Gly-Glu] (HELM PEPTIDE1{E.P.G.L.Q.G}$PEPTIDE1,PEPTIDE1,1:R1-6:R2$$$V2.0)",able to significantly reduce collagen accumulation,–,–
"GLNGE-NH2 [Linear CT1-NH2, Gly-Leu-Asn-Gly-Glu-NH2]",–,–,unstimulated TGFβ expression [2]: had no effect
"CC(C)C[C@@H]1NC(=O)CNC(=O)[C@H](CCC(=O)O)NC(=O)CNC(=O)[C@@H]2C[C@@H](O)CN2C1=O [Cyclic CT2, Gly-Leu-Hyp-Gly-Glu] (HELM PEPTIDE1{E.G.L.[Hyp].G}$PEPTIDE1,PEPTIDE1,1:R1-5:R2$$$V2.0)",–,failed to inhibit collagen accumulation,–
"Ac-GLQGE [Linear Ac-GLQGE, Ac-Gly-Leu-Gln-Gly-Glu]",–,able to significantly reduce CCl4-induced collagen accumulation,–
"CC(C)C[C@H](NC(=O)CN)C(=O)N1C[C@H](O)C[C@H]1C(=O)NCC(=O)N[C@@H](CCC(=O)O)C(N)=O [Linear CT2-NH2, Gly-Leu-Hyp-Gly-Glu-NH2]",–,–,unstimulated TGFβ expression [2]: had no effect
"GLQGE-NH2 [Linear GLQGE-NH2, Gly-Leu-Gln-Gly-Glu-NH2]",able to significantly reduce CCl4-induced collagen accumulation,–,unstimulated TGFβ expression [2]: efficiently inhibits unstimulated TGFβ expression in murine hepatocytes
"CC(C)C[C@@H]1NC(=O)CNC(=O)[C@H](CCC(=O)O)NC(=O)CNC(=O)[C@H](CC(N)=O)NC1=O [Cyclic CT1, Gly-Leu-Asn-Gly-Glu] (HELM PEPTIDE1{E.G.L.N.G}$PEPTIDE1,PEPTIDE1,1:R1-5:R2$$$V2.0)",–,failed to inhibit collagen accumulation,–
"CC(=O)NCC(=O)N[C@@H](CC(C)C)C(=O)N1C[C@H](O)C[C@H]1C(=O)NCC(=O)N[C@@H](CCC(=O)O)C(=O)O [Linear Ac-CT2, Ac-Gly-Leu-Hyp-Gly-Glu]",–,neither the cyclic forms nor the linear forms of the peptides Ac-Gly-Leu-Asn-Gly-Glu and Ac-Gly-Leu-Hyp-Gly-Glu were able to reduce collagen amount in the liver,–
"Ac-GLNGE [Linear Ac-CT1, Ac-Gly-Leu-Asn-Gly-Glu]",–,neither the cyclic forms nor the linear forms of the peptides Ac-Gly-Leu-Asn-Gly-Glu and Ac-Gly-Leu-Hyp-Gly-Glu were able to reduce collagen amount in the liver,–
"CC(C)C[C@@H]1NC(=O)CNC(=O)[C@@H]2CCCN2C(=O)[C@H](CCC(=O)O)NC(=O)CNC(=O)[C@@H]2C[C@@H](O)CN2C1=O [Cyclic CT2+P, Pro-Gly-Leu-Hyp-Gly-Glu] (HELM PEPTIDE1{E.P.G.L.[Hyp].G}$PEPTIDE1,PEPTIDE1,1:R1-6:R2$$$V2.0)",neither the cyclic forms of the control peptides (with Pro: Pro-Gly-Leu-Asn-Gly-Glu or Pro-Gly-Leu-Hyp-Gly-Glu) nor the linear forms of the control peptides Gly-Leu-Asn-Gly-Glu-NH2 and Gly-Leu-Hyp-Gly-Glu-NH2 were able to reduce collagen amount in the liver,–,–
